Measured values: PubChem BioAssay (NCI)
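The concentration for 50% growth inhibition is given as GI50. TGI is the concentration that stops growth completely.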

Experiments:
Assay in all cases: DTP human tumour cell line panel, 384-well format
A549 NSCLC = tested on: A549 NSCLC
ACHN renal = tested on: ACHN renal
EKVX NSCLC = tested on: EKVX NSCLC
HOP-92 NSCLC = tested on: HOP-92 NSCLC
IGROV1 ovarian = tested on: IGROV1 ovarian
KM12 colon = tested on: KM12 colon
LOX IMVI melanoma = tested on: LOX IMVI melanoma
MALME-3M melanoma = tested on: MALME-3M melanoma
NCI/ADR-RES ovarian = tested on: NCI/ADR-RES ovarian
SF-295 CNS = tested on: SF-295 CNS
SK-MEL-28 melanoma = tested on: SK-MEL-28 melanoma
SNB-19 CNS = tested on: SNB-19 CNS
UACC-62 melanoma = tested on: UACC-62 melanoma

SMILES	GI50 (A549 NSCLC)	TGI (A549 NSCLC)	GI50 (ACHN renal)	TGI (ACHN renal)	GI50 (EKVX NSCLC)	TGI (EKVX NSCLC)	GI50 (HOP-92 NSCLC)	TGI (HOP-92 NSCLC)	GI50 (IGROV1 ovarian)	TGI (IGROV1 ovarian)	GI50 (KM12 colon)	TGI (KM12 colon)	GI50 (LOX IMVI melanoma)	TGI (LOX IMVI melanoma)	GI50 (MALME-3M melanoma)	TGI (MALME-3M melanoma)	GI50 (NCI/ADR-RES ovarian)	TGI (NCI/ADR-RES ovarian)	GI50 (SF-295 CNS)	TGI (SF-295 CNS)	other results
O=C(Nc1cnn2ccc(N3CCC[C@@H]3c3cc(F)ccc3F)nc12)N1CC[C@H](O)C1	> 100 µM	> 100 µM	> 100 µM	> 100 µM	> 100 µM	> 100 µM	> 100 µM	> 100 µM	> 100 µM	> 100 µM	0.0181 µM	> 100 µM	> 100 µM	> 100 µM	> 100 µM	> 100 µM	> 100 µM	> 100 µM	> 100 µM	> 100 µM	GI50 (SK-MEL-28 melanoma): > 100 µM; TGI (SK-MEL-28 melanoma): > 100 µM; GI50 (SNB-19 CNS): > 100 µM; TGI (SNB-19 CNS): > 100 µM; GI50 (UACC-62 melanoma): > 100 µM; TGI (UACC-62 melanoma): > 100 µM
COc1ncc(-c2nc3c(n2C(C)C)[C@H](c2ccc(Cl)cc2)N(c2cc(Cl)cn(C)c2=O)C3=O)c(OC)n1	16.6 µM	58.7 µM	13.1 µM	47.8 µM	58.7 µM	> 100 µM	24.8 µM	> 92.2 µM	24.9 µM	> 100 µM	49.8 µM	> 100 µM	18.9 µM	> 100 µM	12.7 µM	42.5 µM	62.6 µM	> 100 µM	63.6 µM	> 100 µM	GI50 (SK-MEL-28 melanoma): > 62.3 µM; TGI (SK-MEL-28 melanoma): > 100 µM; GI50 (SNB-19 CNS): > 94.8 µM; TGI (SNB-19 CNS): > 100 µM; GI50 (UACC-62 melanoma): 5.25 µM; TGI (UACC-62 melanoma): 22.7 µM
